US12371454B2, “Cyclic peptide compound having Kras inhibitory action” (priority 2019, dated 2025)
Starred links: 1 amine or outer side, 2 acyl side, 3 side chain; linkers in the order of their positions; H or OH if unused. Positions of bridges follow the written chain, without caps; N, C: chain ends. Non-standard residues stand in square brackets, D forms with d. Residues, ends and D or L forms follow the SMILES beside them. *: point of attachment. hPhe(3-Cl-4-CF3) = N[C@@H](CCc1ccc(C(F)(F)F)c(Cl)c1)C(=O)O; hPhe(3-F,4-CF3) = N[C@@H](CCc1ccc(C(F)(F)F)c(F)c1)C(=O)O; NMePhe(4-CF3) = CN[C@@H](Cc1ccc(C(F)(F)F)cc1)C(=O)O; hPhe(4-CF3) = N[C@@H](CCc1ccc(C(F)(F)F)cc1)C(=O)O; NMePhe(4-Cl) = CN[C@@H](Cc1ccc(Cl)cc1)C(=O)O; NMePhe(4-Me) = CN[C@@H](Cc1ccc(C)cc1)C(=O)O; NMePhe(3-I) = CN[C@@H](Cc1cccc(I)c1)C(=O)O; NMePhe(4-F) = CN[C@@H](Cc1ccc(F)cc1)C(=O)O; NMePhe(2-Me) = CN[C@@H](Cc1ccccc1C)C(=O)O; NMedβ3hAla = C[C@H](CC(=O)[*:2])N(C)[*:1]; NMeGly(cPent) = CN[C@H](C(=O)O)C1CCCC1; Phe(3-I) = N[C@@H](Cc1cccc(I)c1)C(=O)O; Pro(4,4-F2) = O=C(O)[C@@H]1CC(F)(F)CN1; X84 = O=C(CN(CCc1ccncc1)[*:1])[*:2]; Gly(cPent) = N[C@H](C(=O)O)C1CCCC1; NMeCha = CN[C@@H](CC1CCCCC1)C(=O)O; NMeCba = CN[C@@H](CC1CCC1)C(=O)O; NMeChg = CN[C@H](C(=O)O)C1CCCCC1; NMeF = CN[C@@H](Cc1ccccc1)C(=O)O; NMeI = CC[C@H](C)[C@H](NC)C(=O)O; dNMeF = CN[C@H](Cc1ccccc1)C(=O)O; Gly(cPr) = N[C@H](C(=O)O)C1CC1; NMeD = CN[C@@H](CC(=O)O)C(=O)O; NMeL = CN[C@@H](CC(C)C)C(=O)O; NMeV = CN[C@H](C(=O)O)C(C)C; d(β3hA) = C[C@@H](N)CC(=O)O; NMeAbu = CC[C@H](NC)C(=O)O; NMeS = CN[C@@H](CO)C(=O)O; Iva = CC[C@](C)(N)C(=O)O; NMeA = CN[C@@H](C)C(=O)O; NMeAib = CNC(C)(C)C(=O)O; Nle = CCCC[C@H](N)C(=O)O; Piperidide = C1CCN(*)CC1; dNMeA = CN[C@H](C)C(=O)O; Ac5c = NC1(C(=O)O)CCCC1; Aze = O=C(O)[C@@H]1CCN1; NcPrGly = O=C(O)CNC1CC1; Isopentyl = CC(C)CC*; Sar = CNCC(=O)O

target: T1, Kras and SOS1 (biotin-tagged human Kras loaded with GDP, His-tagged human SOS1) (Homo sapiens, UniProt P01116, G12D); assay: Protein-protein interaction inhibition between Kras and SOS1 (KrasGl2D-SOS PPI) using AlphaScreen; assay type: binding; conditions: AlphaScreen; biotin-tagged human Kras loaded with GDP, His-tagged human SOS1; read-out: KRAS G12D-SOS PPI IC50
T1 construct: made in house; host or cells: E. coli (stated for Kras only)
In short: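 Kras was produced in E. coli, purified, then loaded with GDP. It was paired via streptavidin acceptor beads with His-SOS1 held on nickel donor beads, and proximity signal at 520-620 nm was read after 680 nm illumination.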

T1 sequence (P01116 1-188 isoform P01116-2 G12D): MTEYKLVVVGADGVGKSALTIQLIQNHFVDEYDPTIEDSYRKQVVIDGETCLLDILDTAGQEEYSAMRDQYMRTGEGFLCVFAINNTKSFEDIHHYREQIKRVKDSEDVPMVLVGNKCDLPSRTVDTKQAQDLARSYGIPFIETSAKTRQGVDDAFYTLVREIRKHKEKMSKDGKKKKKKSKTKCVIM

Compound	IC50
CCCC[C@@H]1NC(=O)[C@H](Cc2cccc(I)c2)NC(=O)CN(C)C(=O)[C@H](Cc2ccc(Cl)cc2)N(C)C(=O)CN(C)C(=O)CN(C)C(=O)[C@H]([C@@H](C)CC)NC(=O)[C@H](CC(C)C)N(C)C(=O)C[C@@H](C(=O)N2CCCCC2)N(C)C(=O)[C@H](CC(C)C)NC(=O)[C@H](Cc2ccccc2C)N(C)C1=O [Compound 696] ([NMeL]I[Sar][Sar][NMePhe(4-Cl)][Sar][Phe(3-I)][Nle][NMePhe(2-Me)]L[NMeD]-Piperidide; lactam N-11)	40 nM
CC[C@H](C)[C@@H]1NC(=O)[C@H](CC(C)C)N(C)C(=O)C[C@@H](C)NC(=O)[C@H](CC(C)C)N(C)C(=O)C2(CCCC2)NC(=O)[C@@H]2CCCN2C(=O)[C@H](CCc2ccc(C(F)(F)F)cc2)NC(=O)CN(C)C(=O)[C@H](CC2CCCCC2)N(C)C(=O)CN(C)C(=O)CN(C)C1=O [Compound 414] (cyclo([Ac5c][NMeL][d(β3hA)][NMeL]I[Sar][Sar][NMeCha][Sar][hPhe(4-CF3)]P))	110 nM
CC[C@H](C)[C@@H]1NC(=O)[C@H](CC(C)C)N(C)C(=O)C[C@@H](C)NC(=O)[C@H](CC2CCC2)N(C)C(=O)C2(CCCC2)NC(=O)[C@@H]2CCCN2C(=O)[C@H](CCc2ccc(C(F)(F)F)c(Cl)c2)NC(=O)CN(C)C(=O)[C@H](CC2CCCCC2)N(C)C(=O)CN(C)C(=O)CN(C)C1=O [Compound 59] (cyclo([Ac5c][NMeCba][d(β3hA)][NMeL]I[Sar][Sar][NMeCha][Sar][hPhe(3-Cl-4-CF3)]P))	36 nM
CC[C@H](C)[C@@H]1NC(=O)[C@H](C)N(C)C(=O)C[C@@H](C(=O)N(C)C)N(C)C(=O)[C@H]([C@@H](C)CC)N(C)C(=O)C2(CCCC2)NC(=O)[C@H](Cc2cccc(I)c2)N(C)C(=O)[C@H](CCc2ccc(C(F)(F)F)c(Cl)c2)NC(=O)CN(C)C(=O)[C@H](Cc2ccc(C)cc2)N(C)C(=O)[C@@H]2CCN2C(=O)[C@H](C)N(C)C1=O [Compound 1944] ([NMeA]I[NMeA][Aze][NMePhe(4-Me)][Sar][hPhe(3-Cl-4-CF3)][NMePhe(3-I)][Ac5c][NMeI][NMeD]-NMe2; lactam N-11)	45 nM
CC[C@H](C)[C@@H]1NC(=O)[C@H](C)N(C)C(=O)C[C@@H](C)NC(=O)[C@H](C2CCCC2)N(C)C(=O)C2(CCCC2)NC(=O)[C@@H]2CCCN2C(=O)[C@H](CCc2ccc(C(F)(F)F)c(Cl)c2)NC(=O)[C@H]2CCCN2C(=O)[C@H](Cc2ccc(C(F)(F)F)cc2)N(C)C(=O)[C@@H]2CCN2C(=O)CN(C)C1=O [Compound 1522] (cyclo([Ac5c][NMeGly(cPent)][d(β3hA)][NMeA]I[Sar][Aze][NMePhe(4-CF3)][dP][hPhe(3-Cl-4-CF3)]P))	90 nM
CC[C@H](C)[C@@H]1NC(=O)[C@H](CC(C)C)N(C)C(=O)C[C@@H](C(=O)N2CCCCC2)N(C)C(=O)[C@H](C(C)C)N(C)C(=O)[C@](C)(CC)NC(=O)[C@@H]2CCCN2C(=O)[C@H](CCc2ccc(C(F)(F)F)c(Cl)c2)NC(=O)CN(C)C(=O)[C@H](CC2CCCCC2)N(C)C(=O)[C@@H]2CCN2C(=O)[C@H](C)N(C)C1=O [Compound 394] ([NMeL]I[NMeA][Aze][NMeCha][Sar][hPhe(3-Cl-4-CF3)]P[Iva][NMeV][NMeD]-Piperidide; lactam N-11)	13 nM
CC[C@H](C)[C@@H]1NC(=O)[C@H](C)N(C)C(=O)C[C@@H](C)NC(=O)[C@H](CC(C)C)N(C)C(=O)[C@H](Cc2ccccc2)N(C)C(=O)[C@@H]2CC(F)(F)CN2C(=O)[C@H](CCc2ccc(C(F)(F)F)cc2)NC(=O)CN(C)C(=O)[C@H](Cc2ccc(Cl)cc2)N(C)C(=O)CN(C)C(=O)CN(C)C1=O [Compound 870] (cyclo(I[Sar][Sar][NMePhe(4-Cl)][Sar][hPhe(4-CF3)][Pro(4,4-F2)][NMeF][NMeL][d(β3hA)][NMeA]))	15 nM
CC[C@H](C)[C@@H]1NC(=O)[C@H](C)N(C)C(=O)C[C@@H](C(=O)N2CCCCC2)N(C)C(=O)[C@H](C(C)C)N(C)C(=O)C2(CCCC2)NC(=O)[C@@H]2CCCN2C(=O)[C@H](CCc2ccc(C(F)(F)F)c(Cl)c2)NC(=O)[C@@H](C)N(C)C(=O)[C@H](Cc2ccc(F)cc2)N(C)C(=O)CN(C)C(=O)CN(C)C1=O [Compound 1755] ([NMeA]I[Sar][Sar][NMePhe(4-F)][dNMeA][hPhe(3-Cl-4-CF3)]P[Ac5c][NMeV][NMeD]-Piperidide; lactam N-11)	7.9 nM
CC[C@H](C)[C@@H]1NC(=O)[C@H](CC(C)C)N(C)C(=O)C[C@@H](C(=O)N2CCCCC2)N(C)C(=O)[C@H](C2CCCCC2)N(C)C(=O)C2(CCCC2)NC(=O)CN(CCc2ccncc2)C(=O)[C@H](CCc2ccc(C(F)(F)F)c(Cl)c2)NC(=O)CN(C)C(=O)[C@H](CC2CCCCC2)N(C)C(=O)CN(C)C(=O)CN(C)C1=O [Compound 2029] ([NMeL]I[Sar][Sar][NMeCha][Sar][hPhe(3-Cl-4-CF3)][X84][Ac5c][NMeChg][NMeD]-Piperidide; lactam N-11)	0.83 nM
CC[C@H](C)[C@@H]1NC(=O)[C@H](C)N(C)C(=O)C[C@@H](C(=O)N2CCCCC2)N(C)C(=O)[C@H]([C@@H](C)CC)N(C)C(=O)C2(CCCC2)NC(=O)[C@@H](Cc2ccccc2)N(C)C(=O)[C@H](CCc2ccc(C(F)(F)F)c(Cl)c2)NC(=O)CN(C)C(=O)[C@H](Cc2ccc(C)cc2)N(C)C(=O)[C@@H]2CCN2C(=O)[C@H](C)N(C)C1=O [Compound 1997] ([NMeA]I[NMeA][Aze][NMePhe(4-Me)][Sar][hPhe(3-Cl-4-CF3)][dNMeF][Ac5c][NMeI][NMeD]-Piperidide; lactam N-11)	220 nM
CC[C@H](C)[C@@H]1NC(=O)[C@H](CC(C)C)N(C)C(=O)C[C@@H](C)NC(=O)[C@H](CC)N(C)C(=O)C2(CCCC2)NC(=O)[C@@H]2CCCN2C(=O)[C@H](CCc2ccc(C(F)(F)F)c(F)c2)NC(=O)CN(C)C(=O)[C@H](CC2CCCCC2)N(C)C(=O)CN(C)C(=O)CN(C)C1=O [Compound 1469] (cyclo([Ac5c][NMeAbu][d(β3hA)][NMeL]I[Sar][Sar][NMeCha][Sar][hPhe(3-F,4-CF3)]P))	230 nM
CC[C@H](C)[C@@H]1NC(=O)[C@H](CC(C)C)N(C)C(=O)C[C@@H](C(=O)N(C)C)N(C)C(=O)[C@H]([C@@H](C)CC)N(C)C(=O)C2(CCCC2)NC(=O)[C@H](COCCC(C)C)N(C)C(=O)[C@H](CCc2ccc(C(F)(F)F)c(Cl)c2)NC(=O)CN(C)C(=O)[C@H](Cc2ccc(C)cc2)N(C)C(=O)[C@@H]2CCN2C(=O)[C@H](C)N(C)C1=O [Compound 27, (3S,6S,9S,13S,16S,22S,25S,31S,34S)-25-[2-[3-chloro-4-(trifluoromethyl)phenyl]ethyl]-9-isobutyl-22-(isopentyloxymethyl)-N,N,3,4,10,14,17,23,29,32-decamethyl-6,16-bis[(1S)-1-methylpropyl]-2,5,8,11,15,18,21,24,27,30,33-undecaoxo-31-(p-tolylmethyl)spiro[1,4,7,10,14,17,20,23,26,29,32-undecazabicyclo[32.2.0]hexatriacontane-19,1′-cyclopentane]-13-carboxamide] ([NMeL]I[NMeA][Aze][NMePhe(4-Me)][Sar][hPhe(3-Cl-4-CF3)][NMeS](Isopentyl)[Ac5c][NMeI][NMeD]-NMe2; lactam N-11)	3.3 nM
CC[C@H](C)[C@@H]1NC(=O)[C@H](CC(C)C)N(C)C(=O)C[C@@H](C(=O)N(C)C)N(C)C(=O)[C@H](C2CCCC2)N(C)C(=O)C2(CCCC2)NC(=O)[C@@H]2CCCN2C(=O)[C@H](CCc2ccc(C(F)(F)F)c(Cl)c2)NC(=O)CN(C)C(=O)[C@H](CC2CCCCC2)N(C)C(=O)CN(C)C(=O)CN(C)C1=O [Compound 1659] ([NMeL]I[Sar][Sar][NMeCha][Sar][hPhe(3-Cl-4-CF3)]P[Ac5c][NMeGly(cPent)][NMeD]-NMe2; lactam N-11)	0.38 nM
CC[C@H](C)[C@@H]1NC(=O)[C@H](C)N(C)C(=O)C[C@@H](C)N(C)C(=O)[C@H](C2CCCC2)N(C)C(=O)C(C)(C)N(C)C(=O)[C@@H]2CCCN2C(=O)[C@H](CCc2ccc(C(F)(F)F)c(Cl)c2)NC(=O)CN(C)C(=O)[C@H](CC2CCCCC2)N(C)C(=O)[C@@H]2CCN2C(=O)[C@H](C)N(C)C1=O [Compound 2156] (cyclo([Aze][NMeCha][Sar][hPhe(3-Cl-4-CF3)]P[NMeAib][NMeGly(cPent)][NMedβ3hAla][NMeA]I[NMeA]))	4.5 nM
CC(C)C[C@H]1C(=O)N[C@@H](C2CC2)C(=O)N(C)CC(=O)N(C)CC(=O)N(C)[C@@H](CC2CCCCC2)C(=O)N(C)CC(=O)N[C@@H](CCc2ccc(C(F)(F)F)c(Cl)c2)C(=O)N2CCC[C@H]2C(=O)NC2(CCCC2)C(=O)N(C)[C@@H](C2CCCCC2)C(=O)N(C)[C@H](C(=O)N2CCCCC2)CC(=O)N1C [Compound 1862] ([NMeL][Gly(cPr)][Sar][Sar][NMeCha][Sar][hPhe(3-Cl-4-CF3)]P[Ac5c][NMeChg][NMeD]-Piperidide; lactam N-11)	2 nM
CC[C@H](C)[C@@H]1NC(=O)[C@H](CC(C)C)N(C)C(=O)C[C@@H](C)NC(=O)[C@H](C(C)C)N(C)C(=O)C2(CCCC2)NC(=O)[C@@H]2CCCN2C(=O)[C@H](CCc2ccc(C(F)(F)F)c(Cl)c2)NC(=O)CN(C2CC2)C(=O)[C@H](CC2CCCCC2)N(C)C(=O)CN(C)C(=O)CN(C)C1=O [Compound 204] (cyclo([Ac5c][NMeV][d(β3hA)][NMeL]I[Sar][Sar][NMeCha][NcPrGly][hPhe(3-Cl-4-CF3)]P))	180 nM
CC(C)C[C@H]1C(=O)N[C@@H](C2CCCC2)C(=O)N(C)CC(=O)N(C)CC(=O)N(C)[C@@H](CC2CCCCC2)C(=O)N(C)CC(=O)N[C@@H](CCc2ccc(C(F)(F)F)c(Cl)c2)C(=O)N2CCC[C@H]2C(=O)NC2(CCCC2)C(=O)N(C)[C@@H](C(C)C)C(=O)N[C@H](C)CC(=O)N1C [Compound 333] (cyclo([Ac5c][NMeV][d(β3hA)][NMeL][Gly(cPent)][Sar][Sar][NMeCha][Sar][hPhe(3-Cl-4-CF3)]P))	110 nM
